What all share (type): in vitro ADME, canine
One data set deals with CYP3A26. As to conditions: recombinant CYP3A26; (+)-M1 10 μM, (+)-M2 0.5 μM.
The next data set addresses T1, CYP2D15 (Canis lupus familiaris, UniProt Q29473).
T1 sequence (Q29473 1-500): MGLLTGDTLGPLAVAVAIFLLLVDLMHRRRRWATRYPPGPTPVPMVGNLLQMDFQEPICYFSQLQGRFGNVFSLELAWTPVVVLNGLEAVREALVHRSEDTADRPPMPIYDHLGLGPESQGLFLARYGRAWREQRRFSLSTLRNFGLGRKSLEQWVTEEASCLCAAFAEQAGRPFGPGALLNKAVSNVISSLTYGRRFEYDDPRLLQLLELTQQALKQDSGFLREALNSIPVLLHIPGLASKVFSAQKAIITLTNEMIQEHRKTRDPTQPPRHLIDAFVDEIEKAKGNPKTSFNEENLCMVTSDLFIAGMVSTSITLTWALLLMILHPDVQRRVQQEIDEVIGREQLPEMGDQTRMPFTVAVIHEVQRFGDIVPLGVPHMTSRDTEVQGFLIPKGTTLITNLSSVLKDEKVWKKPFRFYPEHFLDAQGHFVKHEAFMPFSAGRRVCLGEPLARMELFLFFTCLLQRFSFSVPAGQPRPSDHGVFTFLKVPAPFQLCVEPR
As to conditions: recombinant CYP2D15; (+)-M1 10 μM, (+)-M2 0.5 μM.

Another data set concerns the target T2, CYP2C21 (Canis lupus familiaris, UniProt P56594).
T2 sequence (P56594 1-487): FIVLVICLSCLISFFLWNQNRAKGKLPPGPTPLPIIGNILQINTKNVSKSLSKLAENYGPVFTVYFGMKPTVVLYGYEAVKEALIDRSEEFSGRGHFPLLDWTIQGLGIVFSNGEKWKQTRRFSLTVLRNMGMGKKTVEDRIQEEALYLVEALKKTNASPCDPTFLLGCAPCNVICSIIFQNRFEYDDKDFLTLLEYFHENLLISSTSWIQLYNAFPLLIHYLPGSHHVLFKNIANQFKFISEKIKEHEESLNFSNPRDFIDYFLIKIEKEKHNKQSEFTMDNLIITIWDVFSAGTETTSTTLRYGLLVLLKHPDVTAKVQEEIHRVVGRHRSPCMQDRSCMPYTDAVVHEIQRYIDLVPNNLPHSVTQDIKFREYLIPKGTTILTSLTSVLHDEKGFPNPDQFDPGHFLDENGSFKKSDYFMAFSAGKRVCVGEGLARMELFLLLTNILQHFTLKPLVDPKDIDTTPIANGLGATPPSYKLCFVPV
The settings on record: recombinant CYP2C21; (+)-M1 10 μM, (+)-M2 0.5 μM.

For `CN(C)CC1CCCCC1(O)c1cccc(O)c1.Cl` (single isomer, unassigned; (+)) [(+)-M1, (+)-O-desmethyltramadol hydrochloride], the “formation rate of (+)-M5 (in words)” value with CYP3A26 is reported as “only very low activities”; at CYP2D15 it was “only very low activities”; at CYP2C21 it was “highest”.

Values taken from paper PMC6214715 (Journal of veterinary pharmacology and therapeutics, 2018).
